Results: publication PMC6332320, “Factors Influencing Oral Bioavailability of Thai Mango Seed Kernel Extract and Its Key Phenolic Principles” (Molecules, 2015)
“And” between values parts separate entries of the source, which are not always exact repeats. Identical values can stand only once. Like-named read-outs stand apart in the source and are kept apart here.

Experiments:
[1] = rats, i.p., mixture of MG and PGG 20 mg/kg each, cited from earlier work
[2] = In vivo oral pharmacokinetic study in SD rats; design: species or system Sprague-Dawley rats; details: for MRT last / half-life / k el / Cmax / Tmax / AUC(0-t): Sprague-Dawley, rat, blood, po; for k el: read-out: Ke (converted); for AUC(0-t): read-out: AUC0–24h
Description: SD rats (five rats/group) were individually housed in stainless-steel metabolic cages, which allowed for the separation and collection of urine and feces. The rats were fasted overnight with ad libitum access to water prior to the day of the experiment. After a rat was anesthetized with isoflurane gas, the prepared suspension of test compound in an oral suspension vehicle was administered to the animals via oral gavage at a dose of 20 mg/kg for each compound in the mixture of MG and PGG or at 143 mg/kg MSKE, which is equivalent to approximate doses of 20 mg/kg PGG and 0.13 mg/kg MG. Subsequently, the rats’ tails were snipped near the tip to collect blood samples (approximately 50 µL), which were collected in heparinized tubes at 0, 0.50, 1, 2, 4, 6, 8 and 24 h. To investigate the excretion of phenolic compounds, urine and feces were collected between 0–24 h post-administration into tubes containing penicillin G (200 mg) and dry tubes, respectively, which were pre-weighted before use. After completing the pharmacokinetic study, the urine volume and dry feces weights were recorded, and all samples were stored at −80 °C until analysis.
The blood and urine samples were prepared according to our previously reported methods. The fecal samples were prepared by adding 30 mL methanol to the sample, and the mixture was then vortexed and sonicated for 30 min to obtain the fecal lysates, which were extracted via the same method.
The pharmacokinetic parameters of MG and PGG were calculated based on the non-compartmental method using WinNonlin 3.3 (Pharsight Corporation, Mountain View, CA, USA). The total mass of analytes was calculated according to the following equations (Equations (3)–(6)): The mass recovery (%) = (total mass in blood + total mass in urine + total mass in feces)/initial mass of analyte (3) Total mass in blood = C24h in blood × rat blood volume (70 mL/kg of body weight) (4) Total mass in urine = C0–24h in urine × volume of urine (0–24 h) (5) Total mass in feces = C0–24h in fecal lysate × volume of fecal lysate (30 mL) (6) where C24h in the blood is the concentration of analyte found in the blood sample at 24 h, and C0–24h in the urine and C0–24h in the fecal lysate are the concentrations of the analyte found in the urine and fecal samples, respectively, between 0 and 24 h.
A Waters UPLC system coupled with an ESI triple quadrupole mass spectrometer (QTRAP5500, AB Sciex, Foster City, CA, USA) was used to analyze MG and PGG in biological samples. The LC–MS/MS conditions were previously published. The UPLC conditions were Kinetex C18 column at 50 mm × 2.1 mm I.D. and 5 µm particle size (Phenomenex Inc.); mobile phase A at 0.1% formic acid in deionized water; mobile phase B at 100% acetonitrile; gradient at 0.0–0.5 min (0% B), 0.5–1.0 min (0%–30% B), 1.0–2.0 min (30%–90% B), 2.0–3.0 min (90% B), 3.0–3.5 min (90%–0% B) and 3.5–5.0 min (0% B); flow rate at 0.5 mL/min; column temperature at 40 °C; sample temperature at 20 °C; and injection volume at 10 µL. The mass spectrometer employed an MRM method in the negative ion mode. The instrument-dependent parameters for obtaining the mass spectra were set as follows: ionspray voltage at −4.5 kV; ion source temperature at 550 °C; gas 1 at 60 psi; gas 2 at 60 psi; and curtain gas at 20 psi. The unit mass resolution was set in both mass-resolving quadruples Q1 and Q3. Because of the absence of authentic standard for the glucuronide and sulfate metabolites of MG and PGG, qualification of the metabolites in the biological samples was accomplished using the compound-dependent parameters for MG and PGG.

[3] = MSKE 143 mg/kg (20 mg/kg PGG and 0.13 mg/kg MG)
[4] = mixture of MG and PGG 20 mg/kg each
[5] = mixture 20 mg/kg, p.o. vs i.p. (ref 14)
[6] = p.o., MSKE 143 mg/kg (20 mg/kg PGG and 0.13 mg/kg MG)
[7] = p.o., mixture of MG and PGG 20 mg/kg each

SMILES: COC(=O)c1cc(O)c(O)c(O)c1 [MG, methyl gallate]
- Cmax ([1]; blood): 35 µM and 34.7 µM
- Tmax ([1]; blood): 0.85 ± 0.70 h
- CL [1]: 2665.2 ± 1268 mL/min/kg
- Ke [1]: 0.056 ± 0.032 h⁻¹
- MRTlast [1]: 8.71 ± 2.53 h
- Vd [1]: 530.95 ± 247.54 L/kg
- t1/2 [1]: 17.50 ± 12.25 h
- MRT last [2, 3]: 11.1 ± 0.6 h
- half-life [2, 3]: 65.2 ± 49.4 h
- k el [2, 3]: 4.17e-06 s⁻¹
- MRT last [2, 4]: 8.69 ± 1.57 h
- half-life [2, 4]: 24.8 ± 15.7 h
- k el [2, 4]: 1e-05 s⁻¹
- Cmax [2, 3]: 0.24 ± 0.06 µM
- Tmax [2, 3]: 0.5 h
- AUC(0-t) [2, 3]: 3.57 ± 0.79 µM·h
- Cmax [2, 4]: 1.13 ± 1.06 µM
- Tmax [2, 4]: 2.3 ± 1.64 h
- AUC(0-t) [2, 4]: 6.47 ± 0.75 µM·h
- AUC0–24h, oral lower than intraperitoneal [2, 5]: ~17 folds
- Cmax, oral lower than intraperitoneal [2, 5]: ~31 folds
- Tmax, oral compared with intraperitoneal (slower absorption) [2, 5]: approximately 3 folds
- Vd, oral higher than intraperitoneal [2, 5]: approximately 19 folds
- t1/2, oral longer than intraperitoneal [2, 5]: ~1.4 folds
- CL [2, 6]: 35.2 ± 21 mL/min/kg
- Vd [2, 6]: 135.39 ± 21.94 L/kg
- CL [2, 7]: 5534.3 ± 1662 mL/min/kg
- time of second maximum peak of blood concentration (double-peak profile) [2, 7]: 4 h
